Measurements from patent publication US9161988B2, “Multimeric peptide conjugates and uses thereof” (Angiochem Inc., priority 2009, dated 2015).

Experiments:
[1] = relative to Angiopep-1 (250 nM); threshold defining 'efficiently transported across the BBB'; cited from earlier work
[2] = in situ brain perfusion assay, Angiopep-1 dimer vs Angiopep-2; type: in vivo
Experimental: Volume of brain parenchymal distribution was measured using the in situ brain perfusion assay (FIG. 6). […] Parenchymal uptake of the Angiopep-1 dimer and Angiopep-2 was also measured at various concentrations in situ (FIG. 7).

## Angiopep-6: peptide vector, SEQ ID NO:111, T F F Y G G S R G K R N N F R T E E Y (TFFYGGSRGKRNNFRTEEY)
[1]
  transport across the BBB relative to Angiopep-1: 38.5%

## C[C@@H](O)[C@H](N)C(=O)N[C@@H](Cc1ccccc1)C(=O)N[C@@H](Cc1ccccc1)C(=O)N[C@@H](Cc1ccc(O)cc1)C(=O)NCC(=O)NCC(=O)N[C@@H](CSSC[C@H](NC(=O)CNC(=O)CNC(=O)[C@H](Cc1ccc(O)cc1)NC(=O)[C@H](Cc1ccccc1)NC(=O)[C@H](Cc1ccccc1)NC(=O)[C@@H](N)[C@@H](C)O)C(=O)N[C@@H](CCCNC(=N)N)C(=O)NCC(=O)N[C@@H](CCCCN)C(=O)N[C@@H](CCCNC(=N)N)C(=O)N[C@@H](CC(N)=O)C(=O)N[C@@H](CC(N)=O)C(=O)N[C@@H](Cc1ccccc1)C(=O)N[C@@H](CCCCN)C(=O)N[C@H](C(=O)N[C@@H](CCC(=O)O)C(=O)N[C@@H](CCC(=O)O)C(=O)N[C@@H](Cc1ccc(O)cc1)C(N)=O)[C@@H](C)O)C(=O)N[C@@H](CCCNC(=N)N)C(=O)NCC(=O)N[C@@H](CCCCN)C(=O)N[C@@H](CCCNC(=N)N)C(=O)N[C@@H](CC(N)=O)C(=O)N[C@@H](CC(N)=O)C(=O)N[C@@H](Cc1ccccc1)C(=O)N[C@@H](CCCCN)C(=O)N[C@H](C(=O)N[C@@H](CCC(=O)O)C(=O)N[C@@H](CCC(=O)O)C(=O)N[C@@H](Cc1ccc(O)cc1)C(N)=O)[C@@H](C)O [Angiopep-1 dimer]
[2]; as compared to monomeric Angiopep-2, especially at lower concentrations, FIG. 6
  Volume of brain parenchymal distribution: Great uptake volumes
[2]; various concentrations in situ, especially at lower concentrations (<500 nmol), compared to Angiopep-2 monomer, FIG. 7
  Parenchymal uptake: higher transport than the Angiopep-2 monomer
